In ChEMBL document CHEMBL5303573, “Mapping human microbiome drug metabolism by gut bacteria and their genes” (Nature, 2019):

Key:
[1] = The drug is tested on Bacteroides fragilis strain: ATCC43859 for biotransformation. The drug concentrations were measured before and after a 12-h incubation by liquid-chromatography-coupled mass spectrometry (LC–MS); conditions: 2 µM
[2] = The drug is tested on Odoribacter splanchnicus strain: fecal isolate for biotransformation. The drug concentrations were measured before and after a 12-h incubation by liquid-chromatography-coupled mass spectrometry (LC–MS); conditions: 2 µM
[3] = The drug is tested on Blautia luti strain: DSM14534 for biotransformation. The drug concentrations were measured before and after a 12-h incubation by liquid-chromatography-coupled mass spectrometry (LC–MS); type: ADME; set-up: dose 2 uM, timepoint 0 vs 12 hours; conditions: 2 µM
[4] = The drug is tested on Clostridium sp. strain: fecal isolate for biotransformation. The drug concentrations were measured before and after a 12-h incubation by liquid-chromatography-coupled mass spectrometry (LC–MS); conditions: 2 µM
[5] = The drug is tested on Clostridium ramosum strain: DSM1402 for biotransformation. The drug concentrations were measured before and after a 12-h incubation by liquid-chromatography-coupled mass spectrometry (LC–MS); conditions: thomasclavelia ramosa, 2 µM
[6] = The drug is tested on Coprococcus comes strain: ATCC27758 for biotransformation. The drug concentrations were measured before and after a 12-h incubation by liquid-chromatography-coupled mass spectrometry (LC–MS); type: ADME; set-up: dose 2 uM, timepoint 0 vs 12 hours; conditions: 2 µM
[7] = The drug is tested on Dorea formicigenerans strain: ATCC27755 for biotransformation. The drug concentrations were measured before and after a 12-h incubation by liquid-chromatography-coupled mass spectrometry (LC–MS); conditions: 2 µM
[8] = The drug is tested on Eubacterium rectale strain: ATCC33656 for biotransformation. The drug concentrations were measured before and after a 12-h incubation by liquid-chromatography-coupled mass spectrometry (LC–MS); conditions: agathobacter rectalis, 2 µM
[9] = The drug is tested on Ruminococcus lactaris strain: ATCC29176 for biotransformation. The drug concentrations were measured before and after a 12-h incubation by liquid-chromatography-coupled mass spectrometry (LC–MS); conditions: 2 µM
[10] = The drug is tested on Edwardsiella tarda strain: ATCC23685 for biotransformation. The drug concentrations were measured before and after a 12-h incubation by liquid-chromatography-coupled mass spectrometry (LC–MS); conditions: 2 µM
[11] = The drug is tested on Enterobacter cancerogenus strain: ATCC35316 for biotransformation. The drug concentrations were measured before and after a 12-h incubation by liquid-chromatography-coupled mass spectrometry (LC–MS); conditions: 2 µM
[12] = bacteroides thetaiotaomicron, 12 h, 2 µM
Description: The drug is tested on Bacteroides thetaiotaomicron strain: VPI-5482 for biotransformation. The drug concentrations were measured before and after a 12-h incubation by liquid-chromatography-coupled mass spectrometry (LC–MS)

[13] = bacteroides thetaiotaomicron, 12 h, 2 µM; remark: listed apart in the source
Description: The drug is tested on Bacteroides thetaiotaomicron strain: 3731 for biotransformation. The drug concentrations were measured before and after a 12-h incubation by liquid-chromatography-coupled mass spectrometry (LC–MS)

[14] = parabacteroides distasonis, 12 h, 2 µM
Description: The drug is tested on Parabacteroides distasonis strain: ATCC8503 for biotransformation. The drug concentrations were measured before and after a 12-h incubation by liquid-chromatography-coupled mass spectrometry (LC–MS)

[15] = limosilactobacillus reuteri cf48-3a, 12 h, 2 µM
Description: The drug is tested on Lactobacillus reuteri CF48-3A strain: BEI HM-102 for biotransformation. The drug concentrations were measured before and after a 12-h incubation by liquid-chromatography-coupled mass spectrometry (LC–MS)

[16] = akkermansia muciniphila, 12 h, 2 µM
Description: The drug is tested on Akkermansia muciniphila strain: ATCC BAA-835 for biotransformation. The drug concentrations were measured before and after a 12-h incubation by liquid-chromatography-coupled mass spectrometry (LC–MS)

[17] = The drug is tested on Bacteroides vulgatus strain: ATCC8482 for biotransformation. The drug concentrations were measured before and after a 12-h incubation by liquid-chromatography-coupled mass spectrometry (LC–MS); conditions: phocaeicola vulgatus, 2 µM
[18] = bacteroides fragilis, 12 h, 2 µM
Description: The drug is tested on Bacteroides fragilis strain: NCTC 9343 for biotransformation. The drug concentrations were measured before and after a 12-h incubation by liquid-chromatography-coupled mass spectrometry (LC–MS)

[19] = bacteroides thetaiotaomicron, 12 h, 2 µM; remark: listed apart in the source
Description: The drug is tested on Bacteroides thetaiotaomicron strain: 7330 for biotransformation. The drug concentrations were measured before and after a 12-h incubation by liquid-chromatography-coupled mass spectrometry (LC–MS)

[20] = The drug is tested on Bacteroides caccae strain: ATCC43185 for biotransformation. The drug concentrations were measured before and after a 12-h incubation by liquid-chromatography-coupled mass spectrometry (LC–MS); conditions: 2 µM

SMILES | Bacterial Biotransformation [1] | Bacterial Biotransformation [2] | Bacterial Biotransformation [3] | Bacterial Biotransformation [4] | Bacterial Biotransformation [5] | Bacterial Biotransformation [6] | Bacterial Biotransformation [7] | Bacterial Biotransformation [8] | Bacterial Biotransformation [9] | Bacterial Biotransformation [10] | Bacterial Biotransformation [11] | Bacterial Biotransformation [12] | Bacterial Biotransformation [13] | Bacterial Biotransformation [14] | Bacterial Biotransformation [15] | Bacterial Biotransformation [16] | Bacterial Biotransformation [17] | Bacterial Biotransformation [18] | Bacterial Biotransformation [19] | Bacterial Biotransformation [20]
COc1ccc(/C=C/C(=O)Nc2ccccc2C(=O)O)cc1OC | Compound NOT metabolized | Compound NOT metabolized | Compound NOT metabolized | Compound NOT metabolized | Compound NOT metabolized | Compound NOT metabolized | Compound NOT metabolized | Compound NOT metabolized | Compound NOT metabolized | Compound NOT metabolized | Compound NOT metabolized | Compound NOT metabolized | Compound NOT metabolized | Compound NOT metabolized | Compound NOT metabolized | Compound NOT metabolized |  |  |  | 
CCCCC(=O)O[C@]1(C(=O)CO)[C@@H](C)C[C@H]2[C@@H]3CCC4=CC(=O)C=C[C@]4(C)[C@@]3(F)[C@@H](O)C[C@@]21C [BETAMETHASONE VALERATE] |  | Compound metabolized |  | Compound metabolized | Compound NOT metabolized | Compound metabolized | Compound NOT metabolized | Compound NOT metabolized | Compound NOT metabolized | Compound NOT metabolized | Compound NOT metabolized | Compound NOT metabolized | Compound metabolized | Compound metabolized | Compound metabolized |  | Compound metabolized | Compound metabolized | Compound metabolized | 
C[C@@H]1C[C@H]2[C@@H]3CCC4=CC(=O)C=C[C@]4(C)[C@@]3(F)[C@@H](O)C[C@]2(C)[C@@]1(O)C(=O)CO [DEXAMETHASONE] | Compound metabolized |  | Compound NOT metabolized |  |  | Compound NOT metabolized | Compound NOT metabolized | Compound NOT metabolized | Compound NOT metabolized | Compound NOT metabolized | Compound NOT metabolized | Compound metabolized | Compound NOT metabolized | Compound NOT metabolized |  | Compound NOT metabolized |  |  |  | Compound NOT metabolized
CCCCc1nc(Cl)c(CO)n1Cc1ccc(-c2ccccc2-c2nn[nH]n2)cc1 [LOSARTAN] | Compound metabolized | Compound metabolized | Compound NOT metabolized |  | Compound NOT metabolized | Compound NOT metabolized | Compound NOT metabolized | Compound NOT metabolized | Compound NOT metabolized | Compound metabolized | Compound NOT metabolized |  | Compound NOT metabolized | Compound metabolized | Compound NOT metabolized | Compound metabolized | Compound metabolized | Compound metabolized |  | 
OC(c1cc(C(F)(F)F)nc2c(C(F)(F)F)cccc12)C1CCCCN1 (stereo not drawn) [MEFLOQUINE] | Compound NOT metabolized |  | Compound NOT metabolized |  |  | Compound NOT metabolized | Compound NOT metabolized | Compound NOT metabolized |  |  | Compound NOT metabolized | Compound NOT metabolized | Compound NOT metabolized | Compound NOT metabolized | Compound NOT metabolized |  | Compound NOT metabolized | Compound NOT metabolized | Compound NOT metabolized | Compound NOT metabolized
COc1c2occc2cc2ccc(=O)oc12 [METHOXSALEN] | Compound metabolized | Compound metabolized |  | Compound metabolized | Compound metabolized | Compound metabolized | Compound NOT metabolized |  |  | Compound NOT metabolized | Compound NOT metabolized | Compound NOT metabolized |  | Compound metabolized | Compound NOT metabolized |  |  | Compound metabolized |  | Compound metabolized
COC(=O)C(c1ccccc1)C1CCCCN1 (stereo not drawn) [METHYLPHENIDATE] | Compound NOT metabolized |  |  | Compound metabolized |  | Compound NOT metabolized |  |  | Compound NOT metabolized | Compound NOT metabolized | Compound NOT metabolized | Compound NOT metabolized | Compound NOT metabolized |  |  | Compound NOT metabolized |  |  | Compound NOT metabolized | Compound NOT metabolized
CC(C)(C)NCC(O)COc1cccc2c1CC(O)C(O)C2 (stereo not drawn) [NADOLOL] | Compound NOT metabolized | Compound NOT metabolized | Compound NOT metabolized | Compound NOT metabolized | Compound NOT metabolized | Compound NOT metabolized | Compound NOT metabolized |  | Compound NOT metabolized | Compound NOT metabolized | Compound NOT metabolized | Compound NOT metabolized |  |  | Compound NOT metabolized | Compound NOT metabolized | Compound NOT metabolized |  | Compound NOT metabolized | Compound NOT metabolized
CC(=O)O[C@H]1C(=O)[C@@]2(C)[C@H]([C@H](OC(=O)c3ccccc3)[C@]3(O)C[C@H](OC(=O)[C@H](O)[C@@H](NC(=O)c4ccccc4)c4ccccc4)C(C)=C1C3(C)C)[C@]1(OC(C)=O)CO[C@@H]1C[C@@H]2O [PACLITAXEL] | Compound NOT metabolized | Compound metabolized | Compound NOT metabolized |  | Compound NOT metabolized | Compound NOT metabolized | Compound NOT metabolized | Compound NOT metabolized |  | Compound NOT metabolized | Compound NOT metabolized | Compound NOT metabolized | Compound NOT metabolized | Compound NOT metabolized | Compound NOT metabolized | Compound NOT metabolized |  |  | Compound NOT metabolized | Compound NOT metabolized
CCc1nc(N)nc(N)c1-c1ccc(Cl)cc1 [PYRIMETHAMINE] | Compound NOT metabolized | Compound NOT metabolized | Compound NOT metabolized | Compound NOT metabolized |  | Compound NOT metabolized | Compound NOT metabolized |  | Compound NOT metabolized | Compound NOT metabolized | Compound NOT metabolized | Compound NOT metabolized | Compound NOT metabolized | Compound NOT metabolized | Compound NOT metabolized |  | Compound NOT metabolized | Compound NOT metabolized | Compound NOT metabolized | Compound NOT metabolized
